Assay results as given in US10047345B2, “Culturing of mesenchymal stem cells with FGF4 and nicotinamide” (Gamida-Cell Ltd., priority 2012, dated 2018).
“Also recorded” adds a separate entry of the source.

Experiments:
Format in all cases: cell-based, human
[1] = system: bone marrow derived mesenchymal stem cells; test: Seeding, expansion, size and granularity of bone marrow derived MSCs with nicotinamide
Procedure: Bone marrow derived and adipose tissue derived mesenchymal cells were isolated based on their plastic adherence potential in expansion medium containing: High glucose DMEM and 10% Fetal Bovine Serum (FBS, Hyclone, Logan, Utah, USA) supplemented with 0.05 mg/ml Gentamicin (Sigma) and 2 mM L-glutamine (Biological Industries, Israel). Cells were allowed to adhere for 3-4 days and non-adherent cells were washed out with medium changes. The medium was further exchanged with fresh medium every 3-4 days. Once adherent cells reached approximately 80-90% confluency, they were detached with 0.25% trypsin-EDTA (Sigma), washed twice in DMEM and 10% Fetal Bovine Serum, with centrifugation, 400 g, 5 minutes, and replated at a 1:2 to 1:1000 dilution under the same culture conditions. Cell size was measured using Cedex Automated Cell Counter (Innovatis). The cells were diluted 1:2 in Trypan Blue (Sigma) and cell size was measured automatically under microscope. Following trypsin treatment, the cells were analyzed for granularicity by side scatter FACS. Cell number was measured using Cedex Automated Cell Counter (Innovatis). The cells were diluted 1:2 in Trypan Blue (Sigma) and cell number was measured automatically under microscope. […] At each passage and at each medium exchange, the cultures were supplemented with mesenchymal medium, nicotinamide and growth factors.

[2] = system: adipose tissue derived mesenchymal stem cells; test: Expansion and phenotype of adipose tissue derived MSCs with nicotinamide
Procedure: (§1) Cell number was measured using Cedex Automated Cell Counter (Innovatis). The cells were diluted 1:2 in Trypan Blue (Sigma) and cell number was measured automatically under microscope.

[3] = system: bone marrow mesenchymal stem cells; test: Growth factor secretion into conditioned medium (ELISA); conditions: passage 4, 5 mM NAM, 50 ng/ml FGF4
Procedure: In some experiments, the adherent cells were cultured with or without nicotinamide and indicated factors, and 24 hours before passage 4, and the medium replaced with medium without fetal bovine serum or FGF4. Medium from MSC cultured as indicated, and depleted of fetal bovine serum and FGF4 24 hours before passage 4 was collected and assayed by ELISA for growth factors and immune-related factors secreted into the medium ([…] HGF, transforming growth factor beta TGF-β, keratinocyte growth factor KGF and interleukin 6 IL-6). ELISA was carried out using solid phase sandwich ELISA kits specific for human KGF (R&D systems, cat#DKG00), IL-6 (R&D systems, cat#D6050), TGF-β1 (R&D systems, cat#DB100B), HGF (R&D systems, cat#DHG00).

mesenchymal stem cells [4] = test: Large batch and serum batch MSC culture with nicotinamide (cell count)
Procedure: Cell number was measured using Cedex Automated Cell Counter (Innovatis). The cells were diluted 1:2 in Trypan Blue (Sigma) and cell number was measured automatically under microscope. Mesenchymal stem cells were isolated using plastic adherence method, as described above and cultured for several passages with fetal bovine serum, ±NAM. The cells were selected in the presence of NAM. At about 80% confluence, adherent cells were collected following trypsin treatment, counted, characterized and re-seeded at a concentration of 1×10^3 cells/cm^2.

mesenchymal stem cells [5] = test: Expansion of mesenchymal stem cells with growth factors with and without nicotinamide (cumulative cell count); conditions: NAM 5 mM, FGF4 50 ng/ml
Procedure: Bone marrow derived and adipose tissue derived mesenchymal cells were isolated based on their plastic adherence potential in expansion medium containing: High glucose DMEM and 10% Fetal Bovine Serum (FBS, Hyclone, Logan, Utah, USA) supplemented with 0.05 mg/ml Gentamicin (Sigma) and 2 mM L-glutamine (Biological Industries, Israel). Cells were allowed to adhere for 3-4 days and non-adherent cells were washed out with medium changes. The medium was further exchanged with fresh medium every 3-4 days.
Once adherent cells reached approximately 80-90% confluency, they were detached with 0.25% trypsin-EDTA (Sigma), washed twice in DMEM and 10% Fetal Bovine Serum, with centrifugation, 400 g, 5 minutes, and replated at a 1:2 to 1:1000 dilution under the same culture conditions.
Cell number was measured using Cedex Automated Cell Counter (Innovatis). The cells were diluted 1:2 in Trypan Blue (Sigma) and cell number was measured automatically under microscope. […]
Mesenchymal stem cells were selected and cultured in the presence of particular growth factors (basic fibroblast growth factor—bFGF, heparin binding epidermal growth factor—HB-EGF, fibroblast growth factor 4—FGF-4 and platelet derived growth factor, homodimer, subunit B, PDGF-BB) in the presence and absence of nicotinamide for three or four passages and the number and size of the cells was calculated. […]

[6] = system: bone marrow-derived mesenchymal stem cells; test: Senescence evaluation assay (beta-galactosidase staining); conditions: 5 passages, 5 mM NAM, X-Gal staining
Procedure: Cultured MSCs were stained using the Senescence beta-Galactosidase Staining Kit (Cell Signaling). The cells are fixed and stained for detection of beta-Galactosidase activity at pH 6 using X-Gal and incubation overnight in 37° C. in dry incubator.

[7] = system: adipose-derived mesenchymal stem cells; test: Adipose-derived MSC proliferation and cell size with nicotinamide with or without FGF4; conditions: Cedex cell counter; 5 mM NAM, 50 ng/ml FGF4
Procedure: as §1

mesenchymal stem cells [8] = test: Surface expression of VCAM1/CD106 and CD54 by FACS; conditions: versus MSCs grown without nicotinamide
Procedure: Mesenchymal stem cells were isolated using plastic adherence method, as described above and cultured for several passages with fetal bovine serum, ±NAM. The cells were selected in the presence of NAM. At about 80% confluence, adherent cells were collected following trypsin treatment, counted, characterized and re-seeded at a concentration of 1×10^3 cells/cm^2. Following Trypsin treatment the cells were analyzed for CD 106 expression in FACS using anti-human CD 106 PE antibodies. Following Trypsin treatment the cells were analyzed for CD54 expression in FACS using anti-human CD54 antibodies.

## NC(=O)c1cccnc1 [nicotinamide, Nicotinamide]
[1]
  seeding efficacy (selection) of bone marrow derived MSCs: increased the seeding efficacy
[1]; 0.1 mM nicotinamide, figure not shown
  expansion rate of bone marrow derived MSCs at low nicotinamide concentration: insignificant effect
[1]; identical conditions without nicotinamide as comparison
  cell size and granularity of MSCs versus culture without nicotinamide: smaller and less granular
[1]; nicotinamide added from initiation of culture and at each passage
  doubling time of MSCs: decreased
[2]; at least six passages
  differentiation state (surface marker composition) after expansion in nicotinamide: without induction of differentiation
[2]; nicotinamide added from passage 3
  adipose derived mesenchymal stem cell expansion in culture: substantially improved
[3]
  hepatocyte growth factor (HGF) in conditioned medium: elevated levels
  interleukin 6 (IL-6) secreted into conditioned medium: reduced levels; also recorded: reduction
  keratinocyte growth factor (KGF) in conditioned medium: elevated levels
  transforming growth factor beta (TGF-β) in conditioned medium: elevated levels
Mesenchymal stem cells [4]; large batch culture
  effect on cell count in large batches of MSCs: evident on large batches
Mesenchymal stem cells [4]; one of two experiments
  dependence of the proliferative effect on serum batch: not dependent on a particular batch of serum
Mesenchymal stem cells [5]
  effect on the ability of FGF4 to increase proliferation of mesenchymal stem cells: potentiating effect
[6]
  amount of senescent cells: reduced
[7]
  prevalence of smaller size cells in adipose derived MSC cultures: increased prevalence of smaller size cells
Mesenchymal stem cells [8]
  CD54 expression: express less CD54
  VCAM1/CD106 expression: express more VCAM1/CD106
